Reference: publication PMC7611903, “DYW domain structures imply an unusual regulation principle in plant organellar RNA editing catalysis” (Nature catalysis, 2021)
Residue numbers refer to the chain shown, from its start.

Experiments:
OTP86^DYW [1] = target: T1, OTP86^DYW (Arabidopsis thaliana, UniProt Q9M1V3); assay: differential scanning fluorimetry (SYPRO orange); format: binding; conditions: 20 mM Tris pH 7.5, 150 mM NaCl, destabilizing
T1 construct: gene PCMP-H83; isolated DYW domain, residues 826-960; N-terminal Strep-tag cut by TEV, GAM left; E. coli Rosetta2 (DE3); about 15 kDa, monomer
T1 sequence (Q9M1V3 826-960): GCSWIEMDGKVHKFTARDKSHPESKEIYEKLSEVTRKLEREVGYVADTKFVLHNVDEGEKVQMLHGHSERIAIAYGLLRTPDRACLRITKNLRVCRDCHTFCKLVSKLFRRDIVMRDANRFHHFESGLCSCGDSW

OTP86^DYW [2] = target: T2, OTP86^DYW (Arabidopsis thaliana, UniProt Q9M1V3, H892C); assay: differential scanning fluorimetry (SYPRO orange); format: binding; conditions: 20 mM Tris pH 7.5, 150 mM NaCl; destabilizing
T2 construct: gene PCMP-H83; isolated DYW domain, residues 826-960; N-terminal Strep-tag cut by TEV, GAM left; E. coli Rosetta2 (DE3); about 15 kDa, monomer
T2 sequence (Q9M1V3 826-960 H892C): T1 sequence (Q9M1V3 826-960) with H67C

PPR56 = target: T3, PPR56 (Physcomitrium patens, UniProt A0A2K1IWP1); assay: in vitro C-to-U RNA editing, RT-PCR sequencing; format: biochemical; conditions: nad4 RNA substrate, pH 7.5, 16 °C, activator
T3 construct: gene LOC112295756; recombinant from pETG41K::PPR56 (His-MBP fusion), amylose-purified from E. coli; tag kept; PPR tract, E1, E2 and DYW domain
T3 sequence (A0A2K1IWP1 entry or part of it): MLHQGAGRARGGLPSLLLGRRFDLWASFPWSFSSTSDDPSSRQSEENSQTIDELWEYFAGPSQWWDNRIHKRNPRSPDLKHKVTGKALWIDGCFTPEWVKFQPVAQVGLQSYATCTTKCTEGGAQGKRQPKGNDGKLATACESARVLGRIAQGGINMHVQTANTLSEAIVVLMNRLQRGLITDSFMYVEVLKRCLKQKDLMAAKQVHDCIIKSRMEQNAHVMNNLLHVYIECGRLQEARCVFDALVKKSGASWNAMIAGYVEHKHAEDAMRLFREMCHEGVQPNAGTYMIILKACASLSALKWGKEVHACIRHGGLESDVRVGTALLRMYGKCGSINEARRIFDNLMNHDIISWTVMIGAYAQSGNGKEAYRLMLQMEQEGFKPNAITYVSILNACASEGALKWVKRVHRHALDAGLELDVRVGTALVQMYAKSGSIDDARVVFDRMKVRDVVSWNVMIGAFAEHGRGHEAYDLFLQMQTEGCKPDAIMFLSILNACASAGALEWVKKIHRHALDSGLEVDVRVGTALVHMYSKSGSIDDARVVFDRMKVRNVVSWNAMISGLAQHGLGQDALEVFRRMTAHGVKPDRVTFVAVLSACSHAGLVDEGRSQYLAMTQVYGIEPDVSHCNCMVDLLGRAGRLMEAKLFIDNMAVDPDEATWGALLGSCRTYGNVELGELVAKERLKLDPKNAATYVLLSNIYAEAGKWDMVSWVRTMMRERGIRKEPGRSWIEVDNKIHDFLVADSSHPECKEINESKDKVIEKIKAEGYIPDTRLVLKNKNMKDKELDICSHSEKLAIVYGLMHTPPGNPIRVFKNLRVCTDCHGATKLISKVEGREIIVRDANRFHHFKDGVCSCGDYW

OTP86^DYW [3] = target: T4, OTP86^DYW (Arabidopsis thaliana, UniProt Q9M1V3, L917A); assay: differential scanning fluorimetry (SYPRO orange); format: binding; conditions: 20 mM Tris pH 7.5, 150 mM NaCl; destabilizing
T4 construct: gene PCMP-H83; isolated DYW domain, residues 826-960; N-terminal Strep-tag cut by TEV, GAM left; E. coli Rosetta2 (DE3); about 15 kDa, monomer
T4 sequence (Q9M1V3 826-960 L917A): T1 sequence (Q9M1V3 826-960) with L92A

OTP86^DYW [4] = target: T5, OTP86^DYW (Arabidopsis thaliana, UniProt Q9M1V3, K915A); assay: differential scanning fluorimetry (SYPRO orange); format: binding; conditions: 20 mM Tris pH 7.5, 150 mM NaCl; destabilizing
T5 construct: gene PCMP-H83; isolated DYW domain, residues 826-960; N-terminal Strep-tag cut by TEV, GAM left; E. coli Rosetta2 (DE3); about 15 kDa, monomer
T5 sequence (Q9M1V3 826-960 K915A): T1 sequence (Q9M1V3 826-960) with K90A

SMILES	Tm (OTP86^DYW [2])	Tm (OTP86^DYW [3])	in vitro C-to-U RNA editing, RT-PCR sequencing (PPR56)	also measured
Nc1ncnc2c1ncn2[C@@H]1O[C@H](COP(=O)(O)OP(=O)(O)OP(=O)(O)O)[C@@H](O)[C@H]1O [ATP]	we assessed the T m of H892C in the presence of the activators	a milder effect with ATP comparable to wild type was observed		Tm (OTP86^DYW [1]; 2 mM ATP, reversible, activator): 65 °C; in vitro C-to-U RNA editing, RT-PCR sequencing (PPR56; may be allosteric): ATP activates PPR56 and PPR56^PPRE1E2–OTP86^DYW in a concentration-dependent fashion
Nc1ncnc2c1ncn2[C@@H]1O[C@H](COP(=O)(O)OP(=O)(O)CP(=O)(O)O)[C@@H](O)[C@H]1O [AMPPCP]				Tm (OTP86^DYW [1]; non-hydrolysable ATP analogue): 68 °C
Nc1nc2c(ncn2[C@@H]2O[C@H](COP(=O)(O)OP(=O)(O)OP(=O)(O)O)[C@@H](O)[C@H]2O)c(=O)[nH]1 [GTP]			GTP also activate both PPR proteins in a concentration-dependent manner	Tm (OTP86^DYW [1]; 2 mM GTP, reversible, activator): 65.3 °C
O=C1NC(O)CCN1[C@@H]1O[C@H](CO)[C@@H](O)[C@H]1O (stereo partly drawn) [tetrahydrouridine]	The H892C mutant closely resembles the wild-type protein regarding activation, albeit less pronounced	The L917A mutation showed a prominent decrease in T m when THU was added	THU increases deaminase activity markedly for both proteins in a concentration-dependent manner	Tm (OTP86^DYW [1]; reversible, activator): 60 °C; Tm (OTP86^DYW [4]): this effect is less severe with the K915A mutation
